Test [1] deals with Stat3. Nature of the test: Stat3-luciferase (Stat3-Luc) reporter assay, OSM-stimulated HeLa cells. The note with it: HeLa cells. It counts as cell-based. As to the method:
Luciferase Reporter Assay: HeLa Cells were co-transfected with Stat3-luciferase (Stat3-Luc) reporter vector (Panomics, Fremont, Calif.) and Renilla luciferase (Promega, Madison, Wis.) using Lipofectamine 2000 as described by the manufacturer (Invitrogen). Following transfection, cells were maintained in medium containing 0.5% FBS for 24 hours. Cells were then treated with the indicated compound for 30 minutes prior to the addition of 25 ng/ml oncostatin M (OSM) (R&D Systems, Minneapolis, Minn.) to the medium. 6 hours following OSM addition, cells were harvested and levels of firefly and renilla luciferase were measured using the Dual-Glo Luciferase Assay System as described by the manufacturer (Promega).
Inhibition of Stat3 transcription activity. Compounds were tested for their ability to inhibit Stat3 transcription activation activity in cells using a Stat3-luciferase (Stat3-luc) reporter construct. Cells transfected with Stat3-luc were cultured in reduced serum medium prior to addition of indicated compound for 30 minutes. Cells were then stimulated with 25 ng/ml oncostatin M (OSM) for 6 hours followed by detection of Stat3-luc reporter activity. […] AG490, a known inhibitor of the Jak-Stat pathway, was included as a positive control for Stat3 inhibition.
For orientation: In a reporter assay the amount or activity of a reporter protein is the signal.

In test [2] the test system is Stat3. Nature of the test: Stat3 DNA binding assay (EMSA), HeLa nuclear extract. The format is biochemical. The note with it: HeLa nuclear extract with constitutively activated Stat3. As to the method:
STAT3 DNA Binding Assay: Electrophoretic mobility shift assay (EMSA) was performed as described by the manufacturer (Li-Cor Biosciences, Lincoln, Nebr.). Briefly, nuclear extracts were made from HeLa cells using the NucBuster Protein Extraction Kit as described by the manufacturer (EMD Biosciences, San Diego, Calif.). 5 μg of nuclear extract was pre-incubated with the indicated dose of indicated compound for 30 minutes prior to a 15-minute incubation with the IR700-labeled consensus Stat3 oligonucleotide. Samples were then electrophoresed on a polyacrylamide gel and directly scanned using the Odyssey infrared imaging system (Li-Cor Biosciences). For the enzyme-linked immunosorbent assay (ELISA), 5 μg of nuclear extract was preincubated with indicated concentration of indicated compound for 30 minutes prior to the addition of biotinylated oligo (5′-Biotin-[…]-3′ SEQ ID NO. 1). Stat3-DNA complexes were then captured on streptavidin coated 96 well plates (Pierce, Rockford, Ill.). Bound complexes were then incubated with Stat3 polyclonal antibody (Santa Cruz Biotechnology, Santa Cruz, Calif.) followed by anti-rabbit HRP conjugated secondary antibody (GE Healthcare, Pittsburgh, Pa.). Bound antibody was then visualized by addition of TMB substrate (Pierce) and absorbance measured at 450 nm.
Inhibition of Stat3 DNA-binding activity. Nuclear extracts from HeLa cells, which contain constitutively activated Stat3 as detected by phosphorylation at the tyrosine 705 residue, were used to perform Stat3 EMSAs to monitor Stat3 DNA binding activity. Nuclear extracts were incubated with indicated compound prior to incubation with IR700-labeled Stat3 consensus oligonucleotide. Binding of Stat3 to the oligonucleotide was monitored by gel electrophoresis and detection using a LiCor Odyssey infrared scanner.
A general note: In EMSA bound probe runs differently from free probe, usually more slowly.

For test [3], the system named is Hoechst side population cells. Nature of the test: Annexin V staining of Hoechst side population cells. It counts as cell-based. To be noted: Hoechst side population cells treated with compound. As to the method:
Hoechst Side Population: To identify and isolate side population (SP) and non-SP fractions, SW480 cells were removed from the culture dish with trypsin and EDTA, pelleted by centrifugation, washed with phosphate-buffered saline (PBS), and resuspended at 37° C. in Dulbecco's modified Eagle's medium (DMEM) containing 2% FBS and 1 mM HEPES. The cells were then labeled with Hoechst 33342 (Invitrogen) at a concentration of 5 μg/mL. The labeled cells were incubated for 120 minutes at 37° C., either alone or with 50 μM verapamil (Sigma-Aldrich, St. Louis). After staining, the cells were suspended in Hanks' balanced saline solution (HBSS; Invitrogen) containing 2% FBS and 1 mM HEPES, passed a through 40 μm mesh filter, and maintained at 4° C. until flow cytometry analysis. The Hoechst dye was excited at 350 nm, and its fluorescence was measured at two wavelengths using a 450 DF10 (450/20 nm band-pass filter) and a 675LP (675 nm long-pass edge filter) optical filter. The gating on forward and side scatter was not stringent, and only debris was excluded.
Analysis of Apoptosis: Cells treated with or without compound were harvested at 5 hours post treatment for Annexin-V staining. Collected cells were washed with PBS and resuspended in Annexin-V-FITC containing buffer and stained according to manufactures directions (Roche). Annexin-V positive cells were determined by Flow cytometry. […]

The test system of test [4] is Paca2 human pancreatic cancer cells. In words: Colony formation, Paca2 cells, single drugs and combinations. The format is cell-based. To be noted: Homo sapiens, read-out: Compound 401 (% Inhibition). As to the method: (§1) Paca2 human pancreatic cancer cells, A549 human lung cancer cells, and HepG2 human liver cancer cells (American Type Culture Collection) were cultured in Dulbecco's modified Eagle's medium containing 10% fetal bovine serum, 100 units/mL penicillin, 100 μg/mL streptomycin, and 2 mM L-glutamine. […] Erlotinib was from American Custom Chemicals (San Diego, Calif.). Gemcitabine was from Eli Lilly (Indianapolis, Ind.) in an aqueous 20 mM stock solution. Sorafenib was Mass.). Unless otherwise noted all compounds were solubilized in DMSO at 10 mM and aliquoted at −20° C. Exponentially growing Paca2 pancreatic cancer cells were seeded at 1,000 cells per well in 6-well plates and allowed to attach for 24 hours. Increasing concentrations of individual drugs and those in combination were then added to the media for another 24 hours. After 24 hours exposure, the drug was removed and fresh media was added for the next 10-14 days, allowing for colony formation. Cells were fixed and stained with GIEMSA (Gibco BRL). […] Results are an average of duplicate experiments. Alternatively, MTT assays were performed 72 hours post-treatment in A549 and HepG2 cells.

In test [5] the test system is A549 human lung cancer cells. Nature of the test: 72 hour MTT, A549 cells, single drugs and combinations. The format is cell-based. The note with it: 72 hour MTT A549 cells, read-out: Compound 401 (% Inhibition). As to the method:
(§2) Cell Viability Determination: For 3-(4,5 dimethylthiazol-2-yl)-2,5-diphenyltetrazolium (MTT) (Sigma-Aldrich, St. Louis, Mo.) analysis, cells were plated in 96 well plates at 10,000 cells per well. 24 hours after plating, compound was added to cells at indicated doses. […] following compound addition, MTT was added to each well (0.5 mg/ml, final concentration) and plates were incubated for an additional 2 hours at 37° C. Medium was then aspirated and the formazan product was solubilized in 100 μl of isopropyl alcohol. The absorbance of each well was measured at 570 nm using a microplate reader.
as §1

In test [6] the test system is HepG2 human liver cancer cells. In words: 72 hour MTT, HepG2 cells, single drugs and combinations. To be noted: read-out: Compound 401 (% Inhibition). It counts as cell-based. As to the method: as §2, §1

Entries after “also recorded” stand apart in the source; their conditions may differ.

A word on the IC50: it is the concentration that gives 50% inhibition. The inhibition is the percentage by which the read-out fell short of the control. Take `CC(=O)c1cc2c(o1)C(=O)c1ccccc1C2=O` [Compound 401, 2-acetylnaphtho[2,3-b]furan-4,9-dione]: in test [1] (Stat3-luc, 25 ng/ml OSM for 6 hours), the “Inhibition of OSM-stimulated Stat3 reporter activity (in words)” value is reported as “inhibits”. Besides, in test [1] (Homo sapiens, compound 30 minutes before 25 ng/ml oncostatin M, read 6 hours later, read-out: IC50 in Stat3-Luc assays), the IC50 was about 250 nM. Also, in test [2], the “Inhibition of Stat3 DNA-binding activity (in words)” value was “Dose dependent inhibition; also recorded: can inhibit”. In addition, the “Mode of cell death, Annexin V staining” value in test [3] is given as “dying cells are Annexin V positive; also recorded: apoptotic”. For the same compound, the inhibition at 0.066 µM in test [4] (PaCa-2, 401 alone 66 nM) is 32%. In test [4] (PaCa-2, 401 alone 133 nM), the inhibition at 0.133 µM was found to be 66%. Besides, the inhibition at 0.25 µM in test [5] (401 alone 250 nM) amounted to 36%; in test [6] (401 alone 250 nM) it was 43%. For the same compound, the inhibition at 0.5 µM in test [5] (401 alone 500 nM) was determined as 35%. The inhibition at 0.125 µM in test [6] (401 alone 125 nM) turned out to be 7%.

The values above are taken from patent US10377731B2, “Compositions and methods for cancer treatment” (Boston Biomedical, Inc., priority 2007, dated 2019).
